Data published in the supplement of paper PMC9265050, “Inhibition of RNA Binding in SND1 Increases the Levels of miR-1-3p and Sensitizes Cancer Cells to Navitoclax” (Cancers, 2022).

Test system: SW480
Assay: drug sensitivity score (DSS, integrated dose-response area); higher = more sensitive (stronger viability reduction); extreme values may be limits of the assay
In short: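 SW480 cells stably carrying doxycycline-inducible control or SND1-targeting shRNA were treated with 0.1 µg/mL doxycycline for 7 days. Cells were then seeded at 1000 per well into 384-well plates containing 525 commercially available small-molecule inhibitors at five concentrations, and viability was measured with CellTiter-Glo after 72 h. The drug sensitivity score integrates the area under a fitted non-linear dose–response model.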

[1] = shRNA: SND1 shRNA1 (SND1 silenced)
[2] = shRNA: SND1 shRNA2 (SND1 silenced)
[3] = shRNA: control shRNA (non-targeting)

## N#Cc1c(Oc2ccc(F)c(NC(=O)Cc3cccc(C(F)(F)F)c3)c2)ccc2nc(NC(=O)C3CC3)sc12 [TAK-632]
[1]
  drug sensitivity score: 5.9 DSS
[2]
  drug sensitivity score: 0.5 DSS
[3]
  drug sensitivity score: 3.1 DSS

## CCc1nc(-c2cccc(C)c2)c(-c2ccnc(NC(=O)c3ccccc3)c2)s1 [TAK-715]
[1]
  drug sensitivity score: 4.7 DSS
[3]
  drug sensitivity score: 5.1 DSS

## Cn1c(=O)c(F)c(Nc2ccc(I)cc2F)c2c(=O)n(C[C@@H](O)CO)cnc21 [TAK-733]
[1]
  drug sensitivity score: 21.7 DSS
[2]
  drug sensitivity score: 12.2 DSS
[3]
  drug sensitivity score: 12 DSS

## CCS(=O)(=O)c1cccc(-c2cc(C(=O)NC3CCN(C)CC3)c(C)c3[nH]c4ncc(C)cc4c23)c1 [TAK-901]
[1]
  drug sensitivity score: 0.6 DSS
[2]
  drug sensitivity score: 0 DSS
[3]
  drug sensitivity score: 2.1 DSS

## COc1cc(C(=O)NC2CCN(C)CC2)c(F)cc1Nc1ncc2c(n1)N(C1CCCC1)CC(F)(F)C(=O)N2C [TAK-960]
[1]
  drug sensitivity score: 0.1 DSS
[2]
  drug sensitivity score: 5.4 DSS
[3]
  drug sensitivity score: 3.6 DSS

## Cc1cccc(-c2[nH]c(CNc3ccccc3F)nc2-c2ccc3ncnn3c2)n1 [TEW-7197]
[1]
  drug sensitivity score: 0 DSS
[2]
  drug sensitivity score: 0.6 DSS
[3]
  drug sensitivity score: 0.6 DSS

## Nc1nc(N)c2nc(-c3cccc(O)c3)c(-c3cccc(O)c3)nc2n1 [TG100-115]
[1]
  drug sensitivity score: 0 DSS
[2]
  drug sensitivity score: 2.6 DSS
[3]
  drug sensitivity score: 4.9 DSS

## Cc1cc(C(C)Nc2ccccc2)c2nc(N3CCOCC3)cc(=O)n2c1 (stereo not drawn) [TGX-221]
[1]
  drug sensitivity score: 1.6 DSS
[2]
  drug sensitivity score: 2.5 DSS
[3]
  drug sensitivity score: 0.8 DSS

## Nc1nc(NC2CC2)cc(-c2cccc(Cl)c2Cl)n1 [TH588]
[1]
  drug sensitivity score: 6.2 DSS
[3]
  drug sensitivity score: 6.3 DSS

## NC(=O)Nc1sc(-c2ccc(F)cc2)cc1C(N)=O [TPCA-1]
[1]
  drug sensitivity score: 3.8 DSS
[3]
  drug sensitivity score: 2.3 DSS

## Clc1ccccc1C(c1ccccc1)(c1ccccc1)n1cccn1 [TRAM-34]
[1]
  drug sensitivity score: 0 DSS
[2]
  drug sensitivity score: 0 DSS
[3]
  drug sensitivity score: 1.3 DSS

## CC(=O)Nc1ccc(C(=O)Nc2ccccc2N)cc1 [Tacedinaline]
[1]
  drug sensitivity score: 0 DSS
[2]
  drug sensitivity score: 4.5 DSS
[3]
  drug sensitivity score: 3.8 DSS

## C=CC[C@@H]1/C=C(\C)C[C@H](C)C[C@H](OC)[C@H]2O[C@@](O)(C(=O)C(=O)N3CCCC[C@H]3C(=O)O[C@H](/C(C)=C/[C@@H]3CC[C@@H](O)[C@H](OC)C3)[C@H](C)[C@@H](O)CC1=O)[C@H](C)C[C@@H]2OC [Tacrolimus]
[1]
  drug sensitivity score: 0 DSS
[3]
  drug sensitivity score: 0 DSS

## Cn1ncnc1[C@H]1c2n[nH]c(=O)c3cc(F)cc(c23)N[C@@H]1c1ccc(F)cc1 [Talazoparib]
[1]
  drug sensitivity score: 5.8 DSS
[2]
  drug sensitivity score: 0 DSS
[3]
  drug sensitivity score: 2.5 DSS

## C[C@@H]1CN(Cc2ccc(F)cc2)[C@@H](C)CN1C(=O)c1cc2c(C(=O)C(=O)N(C)C)cn(C)c2cc1Cl [Talmapimod]
[1]
  drug sensitivity score: 0 DSS
[3]
  drug sensitivity score: 0 DSS

## COc1cc(Nc2ncc(F)c(Nc3ccc4c(n3)NC(=O)C(C)(C)O4)n2)cc(OC)c1OC [Tamatinib]
[1]
  drug sensitivity score: 0.4 DSS
[2]
  drug sensitivity score: 0.4 DSS
[3]
  drug sensitivity score: 0 DSS

## CC/C(=C(\c1ccccc1)c1ccc(OCCN(C)C)cc1)c1ccccc1 [Tamoxifen]
[1]
  drug sensitivity score: 5 DSS
[2]
  drug sensitivity score: 4.4 DSS
[3]
  drug sensitivity score: 5.9 DSS

## COc1cc2c(N3CCN(C(=O)Nc4ccc(OC(C)C)cc4)CC3)ncnc2cc1OCCCN1CCCCC1 [Tandutinib]
[1]
  drug sensitivity score: 0.5 DSS
[2]
  drug sensitivity score: 4.3 DSS
[3]
  drug sensitivity score: 3 DSS

## C=CCNC1=C2C[C@@H](C)C[C@H](OC)[C@H](O)[C@@H](C)/C=C(\C)[C@H](OC(N)=O)[C@@H](OC)/C=C\C=C(/C)C(=O)NC(=CC1=O)C2=O [Tanespimycin]
[1]
  drug sensitivity score: 10.5 DSS
[2]
  drug sensitivity score: 11.7 DSS
[3]
  drug sensitivity score: 16.1 DSS

## O[C@H]1CC[C@H](Nc2ncc3nc(Nc4c(F)cc(F)cc4F)n([C@H]4CCOC4)c3n2)CC1 [Tanzisertib]
[1]
  drug sensitivity score: 2.9 DSS
[3]
  drug sensitivity score: 3.4 DSS

## C[C@@H](C(=O)O)c1ccc(-c2ccccc2)c(F)c1 [Tarenflurbil]
[1]
  drug sensitivity score: 0 DSS
[2]
  drug sensitivity score: 0 DSS
[3]
  drug sensitivity score: 0 DSS

## Cc1nc(-c2cn3c(n2)-c2ccc(-c4cnn(C(C)(C)C(N)=O)c4)cc2OCC3)n(C(C)C)n1 [Taselisib]
[1]
  drug sensitivity score: 0 DSS
[2]
  drug sensitivity score: 0.7 DSS
[3]
  drug sensitivity score: 0 DSS

## COc1cccc2c1c(O)c(C(=O)N(C)c1ccc(C(F)(F)F)cc1)c(=O)n2C [Tasquinimod]
[1]
  drug sensitivity score: 3.7 DSS
[2]
  drug sensitivity score: 0 DSS
[3]
  drug sensitivity score: 2.3 DSS

## CCN(c1cc(-c2ccc(CN3CCOCC3)cc2)cc(C(=O)NCc2c(C)cc(C)[nH]c2=O)c1C)C1CCOCC1 [Tazemetostat]
[1]
  drug sensitivity score: 3.8 DSS
[2]
  drug sensitivity score: 0.8 DSS
[3]
  drug sensitivity score: 2.2 DSS

## CNC(=O)c1cc(COc2nnc(Nc3ccc(Cl)cc3)c3ccoc23)ccn1 [Telatinib]
[1]
  drug sensitivity score: 0 DSS
[2]
  drug sensitivity score: 0 DSS
[3]
  drug sensitivity score: 0 DSS

## Cn1nnc2c(C(N)=O)ncn2c1=O [Temozolomide]
[1]
  drug sensitivity score: 0 DSS
[2]
  drug sensitivity score: 5.2 DSS
[3]
  drug sensitivity score: 2.4 DSS

## CO[C@H]1C[C@@H]2CC[C@@H](C)[C@@](O)(O2)C(=O)C(=O)N2CCCC[C@H]2C(=O)O[C@H]([C@H](C)C[C@@H]2CC[C@@H](OC(=O)C(C)(CO)CO)[C@H](OC)C2)CC(=O)[C@H](C)/C=C(\C)[C@@H](O)[C@@H](OC)C(=O)[C@H](C)C[C@H](C)/C=C/C=C/C=C/1C [Temsirolimus]
[1]
  drug sensitivity score: 11.9 DSS
[3]
  drug sensitivity score: 9.5 DSS

## COc1cc([C@@H]2c3cc4c(cc3[C@@H](O[C@@H]3O[C@@H]5CO[C@@H](c6cccs6)O[C@H]5[C@H](O)[C@H]3O)[C@H]3COC(=O)[C@H]23)OCO4)cc(OC)c1O [Teniposide]
[1]
  drug sensitivity score: 9.1 DSS
[2]
  drug sensitivity score: 6 DSS
[3]
  drug sensitivity score: 7.8 DSS

## O=C1CCC(N2C(=O)c3ccccc3C2=O)C(=O)N1 (stereo not drawn) [Thalidomide]
[1]
  drug sensitivity score: 0.5 DSS
[2]
  drug sensitivity score: 0.1 DSS
[3]
  drug sensitivity score: 2 DSS

## S=P(N1CC1)(N1CC1)N1CC1 [Thio-TEPA]
[1]
  drug sensitivity score: 0 DSS
[2]
  drug sensitivity score: 0 DSS
[3]
  drug sensitivity score: 0 DSS

## Nc1nc2[nH]cnc2c(=S)[nH]1 [Thioguanine]
[1]
  drug sensitivity score: 9.3 DSS
[2]
  drug sensitivity score: 5.9 DSS
[3]
  drug sensitivity score: 8.4 DSS

## O=c1sn(-c2cccc3ccccc23)c(=O)n1Cc1ccccc1 [Tideglusib]
[1]
  drug sensitivity score: 0.1 DSS
[2]
  drug sensitivity score: 1.2 DSS
[3]
  drug sensitivity score: 0.1 DSS

## Cn1cncc1[C@@](N)(c1ccc(Cl)cc1)c1ccc2c(c1)c(-c1cccc(Cl)c1)cc(=O)n2C [Tipifarnib]
[1]
  drug sensitivity score: 8.8 DSS
[2]
  drug sensitivity score: 8.7 DSS
[3]
  drug sensitivity score: 10.2 DSS

## O=C1NC(=O)[C@@H](c2cn3c4c(cccc24)CCC3)[C@@H]1c1c[nH]c2ccccc12 [Tivantinib]
[1]
  drug sensitivity score: 6.4 DSS
[2]
  drug sensitivity score: 4 DSS
[3]
  drug sensitivity score: 5.4 DSS

## COc1cc2nccc(Oc3ccc(NC(=O)Nc4cc(C)on4)c(Cl)c3)c2cc1OC [Tivozanib]
[1]
  drug sensitivity score: 3.8 DSS
[2]
  drug sensitivity score: 3.6 DSS
[3]
  drug sensitivity score: 5 DSS

## C[C@@H]1CCN(C(=O)CC#N)C[C@@H]1N(C)c1ncnc2[nH]ccc12 [Tofacitinib]
[1]
  drug sensitivity score: 0 DSS
[2]
  drug sensitivity score: 0 DSS
[3]
  drug sensitivity score: 0 DSS

## CC[C@@]1(O)C(=O)OCc2c1cc1n(c2=O)Cc2cc3c(CN(C)C)c(O)ccc3nc2-1 [Topotecan]
[1]
  drug sensitivity score: 11.3 DSS
[2]
  drug sensitivity score: 8.8 DSS
[3]
  drug sensitivity score: 9.7 DSS

## CN(C)CCOc1ccc(/C(=C(/CCCl)c2ccccc2)c2ccccc2)cc1 [Toremifene]
[1]
  drug sensitivity score: 2.6 DSS
[2]
  drug sensitivity score: 1.7 DSS
[3]
  drug sensitivity score: 3.1 DSS

## CC(C)C[C@@H](C(=O)N[C@H](C(=O)OC1CCCC1)c1ccccc1)[C@H](O)C(=O)NO [Tosedostat]
[1]
  drug sensitivity score: 4.4 DSS
[2]
  drug sensitivity score: 3.2 DSS
[3]
  drug sensitivity score: 3.2 DSS

## Cc1cc(Nc2cc(N3CCN(C)CC3)nc(Sc3ccc(NC(=O)C4CC4)cc3)n2)n[nH]1 [Tozasertib]
[1]
  drug sensitivity score: 8.6 DSS
[3]
  drug sensitivity score: 4.8 DSS

## CC(=O)Nc1cccc(-n2c(=O)n(C3CC3)c(=O)c3c(Nc4ccc(I)cc4F)n(C)c(=O)c(C)c32)c1 [Trametinib]
[1]
  drug sensitivity score: 19.3 DSS
[2]
  drug sensitivity score: 12.7 DSS
[3]
  drug sensitivity score: 8.1 DSS

## CC1=C(/C=C/C(C)=C/C=C/C(C)=C/C(=O)O)C(C)(C)CCC1 [Tretinoin]
[1]
  drug sensitivity score: 0 DSS
[2]
  drug sensitivity score: 0 DSS
[3]
  drug sensitivity score: 0 DSS

## NC(=S)N/N=C/c1ncccc1N [Triapine]
[1]
  drug sensitivity score: 2.8 DSS
[3]
  drug sensitivity score: 2.4 DSS

## O=C(CCCCCCC(=O)Nc1ccc([C@H]2O[C@@H](CSc3nc(-c4ccccc4)c(-c4ccccc4)o3)C[C@@H](c3ccc(CO)cc3)O2)cc1)NO [Tubacin]
[1]
  drug sensitivity score: 4.1 DSS
[2]
  drug sensitivity score: 2.7 DSS
[3]
  drug sensitivity score: 6.2 DSS

## CN1CCc2c(c3ccccc3n2Cc2ccc(C(=O)NO)cc2)C1 [Tubastatin A]
[1]
  drug sensitivity score: 4.3 DSS
[2]
  drug sensitivity score: 5 DSS
[3]
  drug sensitivity score: 6.4 DSS

## CN[C@@H]1C[C@H]2O[C@@](C)([C@@H]1OC)n1c3ccccc3c3c4c(c5c6ccccc6n2c5c31)C(=O)N[C@H]4O [UCN-01]
[1]
  drug sensitivity score: 24 DSS
[2]
  drug sensitivity score: 25 DSS
[3]
  drug sensitivity score: 25.4 DSS

## COC(=O)c1ccc2c(c1)[nH]c1ncnc(NCCCN3CCCCC3)c12 [UM729]
[1]
  drug sensitivity score: 1.8 DSS
[2]
  drug sensitivity score: 2.8 DSS
[3]
  drug sensitivity score: 3.3 DSS

## O=C(O)CSc1cc(NS(=O)(=O)c2ccc(Br)cc2)c2ccccc2c1O [UMI-77]
[1]
  drug sensitivity score: 14.5 DSS
[2]
  drug sensitivity score: 13.4 DSS
[3]
  drug sensitivity score: 15.8 DSS

## COc1cc2c(NC3CCN(C(C)C)CC3)nc(C3CCCCC3)nc2cc1OCCCN1CCCC1 [UNC0638]
[1]
  drug sensitivity score: 9.1 DSS
[2]
  drug sensitivity score: 6.5 DSS
[3]
  drug sensitivity score: 9.7 DSS
